Data as given in patent publication US20260217735A1, “HETEROCYCLES AND USES THEREOF” (Kumquat Biosciences Inc., priority 2023, published 2026).

Assays:
[1] = target: T1, KRAS WT (Homo sapiens, UniProt P01116); assay: HTRF assay, wildtype KRAS interaction with SOS1; assay type: biochemical; conditions: bins <500 nM / 500 nM to 1000 nM, read-out: Inhibition of KRAS WT (IC50)
T1 construct: made in house; host or cells: E. coli, e.g. BL21 (DE3)

[2] = target: T2, KRAS G12V (Homo sapiens, UniProt P01116, G12V); assay: HTRF assay, KRAS G12V interaction with SOS1; assay type: biochemical; conditions: bins <500 nM / 500 nM to 1000 nM, read-out: Inhibition of KRAS G12V (IC50)
T2 construct: made in house; host or cells: E. coli, e.g. BL21 (DE3)
T2 sequence (P01116 1-188 isoform P01116-2 G12V): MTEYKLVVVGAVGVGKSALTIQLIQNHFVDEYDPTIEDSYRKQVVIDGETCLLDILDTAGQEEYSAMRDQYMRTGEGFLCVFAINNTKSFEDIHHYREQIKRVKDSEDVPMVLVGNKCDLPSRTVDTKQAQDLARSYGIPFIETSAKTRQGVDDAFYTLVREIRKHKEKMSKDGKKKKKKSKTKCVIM

[3] = tested on: MiaPaca2 cells; assay: Ras cellular assay, growth of cells with K-Ras G12C mutation; assay type: cell-based; conditions: Homo sapiens, MIA PaCa-2; cell proliferation assay; bins ≤500 nM / >500 nM; read-out: Inhibition of MiaPaca2 Cells (IC50)
Method in brief: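 Anchorage-independent growth: G12C-mutant MIA PaCa-2 plated in soft agar, time-zero plate read the next day when compound was dosed (final DMSO 0.3%). After growth to day 10, MTS-type absorbance at 490/660 nm relative to time zero gave IC50 via four-parameter fitting.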

[4] = target: T3, KRAS G12S (Homo sapiens, UniProt P01116, G12S); assay: HTRF assay, KRAS G12S interaction with SOS1; assay type: biochemical; conditions: bins <500 nM / 500 nM to 1000 nM, read-out: Inhibition of KRAS G12S (IC50)
T3 construct: made in house; host or cells: E. coli, e.g. BL21 (DE3)
T3 sequence (P01116 1-188 isoform P01116-2 G12S): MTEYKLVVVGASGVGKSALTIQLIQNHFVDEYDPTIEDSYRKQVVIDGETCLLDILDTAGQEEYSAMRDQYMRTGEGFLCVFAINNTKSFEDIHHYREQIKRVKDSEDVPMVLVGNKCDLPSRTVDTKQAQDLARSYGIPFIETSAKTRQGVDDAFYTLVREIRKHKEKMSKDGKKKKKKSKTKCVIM

[5] = target: T4, KRAS G12D (Homo sapiens, UniProt P01116, G12D); assay: HTRF assay, KRAS G12D interaction with SOS1; assay type: biochemical; conditions: bins <500 nM / 500 nM to 1000 nM, read-out: Inhibition of KRAS G12D (IC50)
T4 construct: made in house; host or cells: E. coli, e.g. BL21 (DE3)
T4 sequence (P01116 1-188 isoform P01116-2 G12D): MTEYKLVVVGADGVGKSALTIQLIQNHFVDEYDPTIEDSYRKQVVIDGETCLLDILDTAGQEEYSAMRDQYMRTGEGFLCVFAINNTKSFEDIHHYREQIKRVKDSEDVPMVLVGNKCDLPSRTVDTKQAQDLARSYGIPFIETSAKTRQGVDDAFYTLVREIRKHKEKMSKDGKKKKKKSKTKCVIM

T1 sequence (P01116 1-188 isoform P01116-2): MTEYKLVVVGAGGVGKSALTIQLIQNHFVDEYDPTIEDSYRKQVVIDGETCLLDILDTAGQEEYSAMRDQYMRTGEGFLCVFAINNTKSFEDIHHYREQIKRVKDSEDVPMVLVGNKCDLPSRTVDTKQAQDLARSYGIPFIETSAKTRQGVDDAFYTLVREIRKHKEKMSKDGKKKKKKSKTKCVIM

Compound | IC50 [1] [nM] | IC50 [2] [nM] | IC50 [3] [nM] | IC50 [4] [nM] | IC50 [5] [nM]
CCN(c1nc(OC[C@@]23CCCN2C[C@H](F)C3)nc2c(F)c(-c3ccc(F)c4sc(N)c(C#N)c34)c(C(F)(F)F)cc12)[C@@H]1CCN(C(=O)n2ccc(Cl)n2)[C@@H]1C (atropisomer, axis not shown; (aS)) [Compound 193, (S)-2-amino-4-(4-(((2R,3R)-1-(3-chloro-1H-pyrazole-1-carbonyl)-2-methylpyrrolidin-3-yl)(ethyl)amino)-8-fluoro-2-(((2R,7aS)-2-fluorotetrahydro-1H-pyrrolizin-7a(5H)-yl)methoxy)-6-(trifluoromethyl)quinazolin-7-yl)-7-fluorobenzo[b]thiophene-3-carbonitrile] | < 500 | < 500 | ≤ 500 | < 500 | < 500
CCN(c1nc(OC[C@@]23CCCN2[C@H](COc2ccc(C(F)(F)F)nn2)CC3)nc2c(F)c(-c3ccc(F)c4sc(N)c(C#N)c34)c(Cl)cc12)[C@@H]1CCN(C(=O)n2cc(C)nc2C)[C@@H]1C [Compound 182, 2-amino-4-(6-chloro-4-(((2R,3R)-1-(2,4-dimethyl-1H-imidazole-1-carbonyl)-2-methylpyrrolidin-3-yl)(ethyl)amino)-8-fluoro-2-(((3S,7aS)-3-(((6-(trifluoromethyl)pyridazin-3-yl)oxy)methyl)tetrahydro-1H-pyrrolizin-7a(5H)-yl)methoxy)quinazolin-7-yl)-7-fluorobenzo[b]thiophene-3-carbonitrile] | < 500 | < 500 | ≤ 500 | < 500 | < 500
CCN(c1nc(OC[C@@]23CCCN2C[C@H](F)C3)nc2c(F)c(-c3ccc(F)c4sc(N)c(C#N)c34)c(C(F)(F)F)cc12)[C@@H]1CCN(C(=O)n2cnc(C)c2C)[C@@H]1C [Compound 110, 2-amino-4-(4-(((2R,3R)-1-(4,5-dimethyl-1H-imidazole-1-carbonyl)-2-methylpyrrolidin-3-yl)(ethyl)amino)-8-fluoro-2-(((2R,7aS)-2-fluorotetrahydro-1H-pyrrolizin-7a(5H)-yl)methoxy)-6-(trifluoromethyl)quinazolin-7-yl)-7-fluorobenzo[b]thiophene-3-carbonitrile] | < 500 | < 500 | ≤ 500 | < 500 | < 500
CCN(c1nc(OC[C@@]23CCCN2C[C@H](F)C3)nc2c(F)c(-c3ccc(F)c4sc(N)c(C#N)c34)c(Cl)cc12)[C@@H]1CCN(C(=O)n2ccnc2)[C@@H]1C [Compound 106, 4-(4-(((2R,3R)-1-(1H-imidazole-1-carbonyl)-2-methylpyrrolidin-3-yl)(ethyl)amino)-6-chloro-8-fluoro-2-(((2R,7aS)-2-fluorotetrahydro-1H-pyrrolizin-7a(5H)-yl)methoxy)quinazolin-7-yl)-2-amino-7-fluorobenzo[b]thiophene-3-carbonitrile] | < 500 | < 500 | ≤ 500 | < 500 | < 500
CCN(c1nc(OCC2(CN3CC4CCC(C3)O4)CC2)nc2c(F)c(-c3ccc(F)c4sc(N)c(C#N)c34)c(C(F)(F)F)cc12)[C@@H]1CCN(C(=O)n2cnc(Cl)n2)[C@@H]1C [Compound 204, (4S)-4-(2-((1-((8-oxa-3-azabicyclo[3.2.1]octan-3-yl)methyl)cyclopropyl)methoxy)-4-(((2R,3R)-1-(3-chloro-1H-1,2,4-triazole-1-carbonyl)-2-methylpyrrolidin-3-yl)(ethyl)amino)-8-fluoro-6-(trifluoromethyl)quinazolin-7-yl)-2-amino-7-fluorobenzo[b]thiophene-3-carbonitrile] | < 500 | < 500 | ≤ 500 | < 500 | < 500

More lines, now with the values ahead:

IC50 [1] [nM] | IC50 [2] [nM] | IC50 [3] [nM] | IC50 [4] [nM] | IC50 [5] [nM] | Compound
< 500 | < 500 | ≤ 500 | < 500 | < 500 | C[C@@H]1[C@H](N(C)c2nc(OC[C@@]34CCCN3C[C@H](F)C4)nc3c(F)c(-c4ccc(F)c5sc(N)c(C#N)c45)c(Cl)cc23)CCN1C(=O)n1ccc(F)n1 [Compound 101, 2-amino-4-(6-chloro-8-fluoro-4-(((2R,3R)-1-(3-fluoro-1H-pyrazole-1-carbonyl)-2-methylpyrrolidin-3-yl)(methyl)amino)-2-(((2R,7aS)-2-fluorotetrahydro-1H-pyrrolizin-7a(5H)-yl)methoxy)quinazolin-7-yl)-7-fluorobenzo[b]thiophene-3-carbonitrile]
< 500 | < 500 | ≤ 500 | < 500 | < 500 | Cc1cn(C(=O)N(C)CC2(F)CN(c3nc(OC[C@@]45CCCN4C[C@H](F)C5)nc4c(F)c(-c5ccc(F)c6sc(N)c(C#N)c56)c(Cl)cc34)C2)cn1 [Compound 109, N-((1-(7-(2-amino-3-cyano-7-fluorobenzo[b]thiophen-4-yl)-6-chloro-8-fluoro-2-(((2R,7aS)-2-fluorotetrahydro-1H-pyrrolizin-7a(5H)-yl)methoxy)quinazolin-4-yl)-3-fluoroazetidin-3-yl)methyl)-N,4-dimethyl-1H-imidazole-1-carboxamide]
< 500 | < 500 | ≤ 500 | < 500 | < 500 | N#Cc1c(N)sc2c(F)ccc(-c3c(Cl)cc4c(N5CCCCC6(CN(C(=O)n7ccnc7Br)C6)C5)nc(OC[C@@]56CCCN5C[C@H](F)C6)nc4c3F)c12 [Compound 119, 2-amino-4-(4-(2-(2-bromo-1H-imidazole-1-carbonyl)-2,6-diazaspiro[3.6]decan-6-yl)-6-chloro-8-fluoro-2-(((2R,7aS)-2-fluorotetrahydro-1H-pyrrolizin-7a(5H)-yl)methoxy)quinazolin-7-yl)-7-fluorobenzo[b]thiophene-3-carbonitrile]
< 500 | < 500 | ≤ 500 | < 500 | < 500 | CC[C@@H]1[C@H](N(C)c2nc(OC[C@@]34CCCN3C[C@H](F)C4)nc3c(F)c(-c4ccc(F)c5sc(N)c(C#N)c45)c(Cl)cc23)CCN1C(=O)n1cnc(F)n1 [Compound 134, 2-amino-4-(6-chloro-4-(((2R,3R)-2-ethyl-1-(3-fluoro-1H-1,2,4-triazole-1-carbonyl)pyrrolidin-3-yl)(methyl)amino)-8-fluoro-2-(((2R,7aS)-2-fluorotetrahydro-1H-pyrrolizin-7a(5H)-yl)methoxy)quinazolin-7-yl)-7-fluorobenzo[b]thiophene-3-carbonitrile]
< 500 | < 500 | ≤ 500 | < 500 | < 500 | CC[C@H]1N(C(=O)n2cnc(C)c2C)C[C@]12CCCCN(c1nc(OC[C@@]34CCCN3C[C@H](F)C4)nc3c(F)c(-c4ccc(F)c5sc(N)c(C#N)c45)c(Cl)cc13)C2 [Compound 215, 2-amino-4-(6-chloro-4-((1R,4R)-2-(4,5-dimethyl-1H-imidazole-1-carbonyl)-1-ethyl-2,6-diazaspiro[3.6]decan-6-yl)-8-fluoro-2-(((2R,7aS)-2-fluorotetrahydro-1H-pyrrolizin-7a(5H)-yl)methoxy)quinazolin-7-yl)-7-fluorobenzo[b]thiophene-3-carbonitrile]
